Data published in patent publication US20220380724A1, “COMPOSITION FOR PROMOTING PROLIFERATION OF STEM CELLS, CONTAINING, AS ACTIVE INGREDIENT, CP1P OR PHARMACEUTICALLY ACCEPTABLE SALT THEREOF” (INDUSTRY-UNIVERSITY COOPERATION FOUNDATION HANYANG …, priority 2019, published 2022).

Key:
Type in all cases: cell-based, human
hPSCs (CHA-ESC15) = experiment: hPSC cell proliferation ability (optical microscopy and cell count); conditions: cultured 6 days; for cell proliferation rate increase compared to the control group (FIG. 3): hPSCs, 10 nM, counted day 7, control DMSO; for apoptosis seen in micrographs (FIG. 2): hPSCs, 50, 100 or 500 nM
Protocol: They were shaken up and down, left and right to evenly disperse the cells and cultured within 24 hours in a 37° C. CO2 incubator. The culture medium was replaced with the E8 culture medium from which Y27632 was removed, and then the cells were cultured by replacing the culture medium every day until the next passage.
On the 7th day, the cells were observed using an optical microscope at a magnification of 100 times.
In addition, in order to measure the number of cells, the culture medium of the cells was removed on the 7th day of culture, and they were washed once with PBS. Then, for PBS-removed cells, cell dissociation buffer ([…]) was used to cause single-cell. The separated cells were centrifuged at 1000 rpm for 2 minutes to remove the buffer. Then, the cells were suspended in an E8 medium, and the number of cells was measured using EVE™ Automated Cell Counter (NanoEnTek).
Meanwhile, the control group was tested in the same manner as above, except that hPSCs were treated with DMSO (AppliChem GE, A3672,0100).
The culture was performed for 6 days, and hPSCs were observed on the 7th day. The proliferation rate was calculated as {(total number of cells in P1P, cP1P, or SW treatment group)/(total number of cells in the control group)}×100.

[1] = system: REX1, E-Cadherin, OCT4, SOX2, NANOG, SSEA-4; experiment: Pluripotency marker expression in hPSCs (immunofluorescence, pluripotent array kit, flow cytometry, Western blot); conditions: 100 nM
Protocol: (§1) For expression analysis of cell cycle regulatory genes, hPSCs were treated with 10 nM cP1P in the same manner as in Example 1. After hPSCs were washed with PBS, hPSCs were fixed in 4% (w/v) PFA (Santa Cruz Biotechnology US, 30525-89-4) for 5 minutes, or after the protein of hPSC cells was recovered, followed by electrophoresis. The expression of pluripotency genes was analyzed (immunofluorescence analysis or Western blot analysis) using anti-REX1(Abcam UK, ab50828), anti-OCT4(Santa Cruz Biotechnology US, sc-5279), anti-SOX2(Abcam UK, ab97959), anti-NANOG(Cell signaling US, 4893s), anti-E-cadherin(Cell signaling US, 24E10), or anti-SSEA4(Merck millipore US, 90231) antibody. Meanwhile, the control group was tested in the same manner as above, except that hPSCs were treated with DMSO (AppliChem GE, A3672,0100).
Specifically, hPSCs were treated with 100 nM cP1P in the same manner as in Example 1. Immunofluorescence analysis was performed in the same manner as in Example 6. Expression of pluripotency-related genes was analyzed using a pluripotent array kit (R&D System US, ARY101). Flow cytometry was performed in the same manner as in Example 6.

hPSCs [2] = experiment: hPSC proliferation during subculture (total number of cells); conditions: continuous 10 nM, subculture 3 times, P<0.01
Protocol: In order to check whether the change in hPSCs proliferation ability by cP1P treatment is maintained during subculture, hPSCs were continuously treated with 10 nM cP1P in the same manner as in Example 1, and after subculture 3 times, the proliferation change of hPSCs was confirmed.

CDK1, Cyclin B = experiment: Expression of cell cycle regulatory genes in hPSCs; conditions: 10 nM, compared to control
Protocol: as §1

hPSCs [3] = experiment: Apoptosis and cytotoxicity assay (Annexin V / 7-AAD); conditions: 5 days; for apoptosis marker, (Annexin V, early apoptosis marker; FIG. 8): DMSO control 0.5%; for apoptosis marker, (7-AAD, late apoptosis marker; FIG. 8): DMSO control 6.2%
Protocol: In order to confirm apoptosis, hPSCs were treated with 10 nM cP1P in the same manner as in Example 1, hPSCs were separated using cell dissociation buffer (Thermo Fisher Scientific US, A1110501), and harvested cells were washed with DPBS (pH 7.4) 2 times. After centrifuged at 2,000 rpm for 5 minutes. The cells were resuspended at 1×10^5 cells per 100 ul of 1× binding buffer to which 10× binding buffer (0.1 M HEPES, 1.4 M NaCl, 25 mM CaCl2, pH 7.4) was diluted. They were added with 5 ul each of Annexin V (BD bioscience US, 556422) and 7-AAD (BD bioscience U.S. Pat. No. 1,559,925) and mixed slowly. They were cultured for 15 minutes in the dark at room temperature and added with 400 ul of 1× binding buffer. Then, analysis was performed using the Annexin V apoptosis detection kit (BD Pharmingen US, 556547).
In order to confirm whether apoptosis and cytotoxicity were induced when hPSCs were treated with cP1P, hPSCs were treated with 10 nM or 100 nM cP1P for 5 days in the same manner as in Example 6, and then Annexin V apoptosis detection kit (BD Pharmingen US, 556547) was used for analysis.

hPSCs [4] = experiment: Alkaline phosphatase staining of hPSCs (undifferentiation ability); conditions: 10 nM, compared to DMSO control
Protocol: In order to check whether the differentiation ability of hPSCs was changed by cP1P treatment, hPSCs were treated with 10 nM cP1P or a control group (vehicle, DMSO) in the same manner as in Example 2.

hPSCs [5] = experiment: hPSC cell cycle by PI flow cytometry; conditions: 10 nM
Protocol: For flow cytometry, hPSCs were treated with 10 nM cP1P in the same manner as in Example 1, and hPSCs were separated using cell dissociation buffer (Thermo Fisher Scientific US, A1110501), and harvested cells were washed three times with DPBS (pH 7.4). After washing, the supernatant was removed. During washing, cold 70% (v/v) ethanol was added dropwise to the cell pellet. The cells were fixed at 4° C. for 1 hour and washed 3 times with DPBS (pH 7.4). After centrifugation at 2,000 rpm for 5 minutes, 50 uL of 100 μg/ml RNase (Sigma-Aldrich US, R4642) was added. They were mixed well and added with 200 μl of PI (propidium iodide) (Sigma-Aldrich US, P4170) (50 μg/ml) to stain the DNA. Then, the DNA content was measured using flow cytometry (BD).

hPSCs [6] = experiment: RNA sequencing of hPSCs after long-term (15 passages) treatment; conditions: 10 nM
Protocol: Specifically, hPSCs were treated and cultured with 10 nM cP1P or were treated and cultured with DMSO as a control group in the same manner as in Example 1. The passage in which cP1P was first treated was defined as 0 and cultured up to a total of 15 passages. After the cells were recovered, and RNAs were extracted. The RNA sequencing analysis was performed with a next-generation sequencing analyzer (Illumina HiSeq 2500) by DGIST (Daegu Gyeongbuk Institute of Science and Technology) asked to analyze the cells.

CCCCCCCCCCCCC/C=C/[C@@H](O)[C@@H](N)COP(=O)(O)O [S1P, sphingosine-1-phosphate]
cell proliferation rate increase compared to the control group (FIG. 3) (hPSCs (CHA-ESC15)): about 1.25 times | apoptosis seen in micrographs (FIG. 2) (hPSCs (CHA-ESC15); observed day 7): apoptosis occurred

CCCCCCCCCCCCCC[C@@H](O)[C@@H](O)[C@@H](N)COP(=O)(O)O [P1P, phytosphingosine-1-phosphate]
cell proliferation rate increase compared to the control group (FIG. 3) (hPSCs (CHA-ESC15)): about 1.55 times | apoptosis seen in micrographs (FIG. 2) (hPSCs (CHA-ESC15); observed day 7): apoptosis occurred

CCCCCCCCCCCCCC[C@@H](O)[C@H]1OP(=O)(O)OC[C@@H]1N [cP1P, o-cyclic phytosphingosine-1-phosphate]
expression of pluripotency marker genes REX1, E-Cadherin, OCT4 and SOX2 (immunofluorescence, FIG. 9A) ([1]; compared to control): increased | protein expression of OCT4 and E-Cadherin (FIG. 9D) ([1]; compared to control): increased | spots of pluripotency-related genes OCT4, NANOG, SOX2 and E-Cadherin (array, FIG. 9B) ([1]; compared to control): detected to be high | protein expression of SSEA-4 (FIG. 9C) ([1]; control 68.8%): 82.2% | protein expression of E-Cadherin (FIG. 9C) ([1]; control 81.8%): 85.6% | protein expression of REX1 (FIG. 9C) ([1]; control 86.8%): 95.7% | protein expression of OCT4 (FIG. 9C) ([1]; control 95.2%): 96.5% | total number of cells as subculture was performed (FIG. 6) (hPSCs [2]): increased significantly | expression of genes regulating the cell cycle (CDK1, Cyclin B; FIGS. 7C to 7E) (CDK1, Cyclin B): increased | apoptosis compared to the control group (FIG. 8) (hPSCs [3]; 10 nM or 100 nM): reduced | cytotoxicity compared to the control group (FIG. 8) (hPSCs [3]; 10 nM or 100 nM): significantly lowered | apoptosis marker, (Annexin V, early apoptosis marker; FIG. 8) (hPSCs [3]; 10 nM): 0.9% | apoptosis marker, (7-AAD, late apoptosis marker; FIG. 8) (hPSCs [3]; 10 nM): 3.9% | apoptosis marker, (Annexin V, early apoptosis marker; FIG. 8) (hPSCs [3]; 100 nM): 1.9% | apoptosis marker, (7-AAD, late apoptosis marker; FIG. 8) (hPSCs [3]; 100 nM): 5.3% | undifferentiation ability (alkaline phosphatase staining, FIG. 4) (hPSCs [4]): well maintained | cell proliferation rate increase compared to the control group (FIG. 3) (hPSCs (CHA-ESC15)): 1.78 times | cell proliferation ability (FIG. 2) (hPSCs (CHA-ESC15); hPSCs, 50, 100 or 500 nM every 2 days, observed day 7, compared to P1P or S1P): significantly increased | increase of cell proliferation compared to the control group (FIG. 7A) (hPSCs [5]): ≥ 12% | number of cells in G2/M phase (FIG. 7B) (hPSCs [5]; compared to control, P<0.01): significantly increased | number of cells in sub-GO phase (apoptotic cells, FIG. 7B) (hPSCs [5]; compared to control, P>0.05): significantly reduced | cell proliferation, experimental group (FIG. 7A) (hPSCs [5]; control group 48%): 60% | cluster 5 (C5) gene expression (cell development, embryo development, cell proliferation genes) (hPSCs [6]; decreased in untreated control): stably maintained | cluster 2 (C2) gene expression (oxidative stress and apoptotic process genes) (hPSCs [6]; increased in untreated control): decreased | gene expression changes (DEG) compared with passage 0 (FIG. 10) (hPSCs [6]; no cP1P-treated group 575): 197
